Source: patent US20110236467A1, “METHOD FOR ERECTILE FUNCTION PO[…] PHARMACEUTICAL CO[…] TX2-6 OF THE SPIDER PHONEUTRIA NIGRIVENTER” (priority 2008, published 2011)
“Also recorded” adds a separate entry of the source.

Test system: nitric oxide synthase (NOS)
Assay: Blockage of nitric oxide synthase by L-NAME and Tx2-6 action on erectile function (ICP/MAP) in rats
Type: in vivo, rat
Description: The participation of nitric oxide, resulting from the toxin effect on erection, was tested by using a nonselective inhibitor of the nitric oxide synthase enzyme, L-NAME (L-N^G-nitro-arginine methyl ester), intracavernosally injected (200 mg/Kg) in normotensive rats treated with Tx2-6 (subcutaneously injected; 48 μg/Kg).
Nitric oxide (NO) is generated from the amino acid L-arginine by means of the NOS enzyme action. This synthesis occurs in different parts of the organism, including the corpus cavernosum. In this experiment, an inhibitor nonspecific for NOS (L-NAME, 200 mg/Kg) was injected intracavemosally.

COC(=O)[C@@H](N)CCCNC(=N)N[N+](=O)[O-] [L-NAME, L-N^G-nitro-arginine methyl ester]
effect of L-NAME on rat erectile function (ICP/AMP ratio) (L-NAME 200 mg/Kg intracavernosal, submaximum stimulation): blocked rat erectile function; also recorded: significant blockage
effect of L-NAME on the potentiator effect of erection caused by the toxin (ICP/MAP relation) (L-NAME with Tx2-6): completely blocked
